In patent publication US20250057928A1, “VACCINE COMPOSITION FOR INDUCING ANTI-IL-23 ANTIBODY” (OSAKA UNIVERSITY, priority 2021, published 2025):
Where no end group is shown, it is not given here.

Columns and labels:
p19 subunit = target: T1, p19 subunit (Homo sapiens, UniProt Q9NPF7); details: compared with Ustekinumab; cited from earlier work
T1 sequence (Q9NPF7 20-189): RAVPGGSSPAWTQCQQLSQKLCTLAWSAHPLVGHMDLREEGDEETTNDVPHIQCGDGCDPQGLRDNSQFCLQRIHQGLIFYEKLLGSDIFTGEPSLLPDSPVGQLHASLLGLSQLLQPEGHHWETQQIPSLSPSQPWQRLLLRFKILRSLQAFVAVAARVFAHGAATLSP
T1 sequence (P29460 23-328 partner): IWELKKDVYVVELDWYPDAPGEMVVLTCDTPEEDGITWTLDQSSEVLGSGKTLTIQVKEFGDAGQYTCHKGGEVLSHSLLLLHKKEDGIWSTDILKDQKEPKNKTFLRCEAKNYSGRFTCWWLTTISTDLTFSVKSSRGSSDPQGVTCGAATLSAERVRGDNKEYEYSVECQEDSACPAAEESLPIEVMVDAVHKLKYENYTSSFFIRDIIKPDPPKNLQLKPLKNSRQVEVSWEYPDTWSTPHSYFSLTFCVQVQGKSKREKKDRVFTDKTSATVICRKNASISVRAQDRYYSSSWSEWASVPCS

epitope peptide = assay: Antibody titer (GMT) of serum of mice administered AJP001 conjugated peptide, ELISA; type: in vivo, mouse; details: BALB/c mice, 0.5 mg/body intradermal with equal amount of 2% Alhydrogel, 3 times at two-week intervals; serum 6 weeks after initial administration; titer to each epitope sequence
Description: AJP001 conjugated peptide having one of the B cell epitope sequences of SEQ ID NOs: 1-5 was dissolved in physiological saline and intradermally administered twice to BALB/c mice (female, 6-week-old, N=5-6) at 0.5 mg/body at 2-week intervals. Blood was collected before administration and 5 weeks after the initial administration, and the antibody titer against each AJP001 conjugated peptide and the binding ability to recombinant mouse IL-23 protein (rmIL-23) were measured by the ELISA method. Specifically, a 96-well plate immobilized with an epitope peptide dissolved at 10 μg/mL in carbonate buffer was blocked with 5% skim milk/PBS, and then serum serially diluted with 5% skim milk/PBS was added, and the mixture was left standing at 4° C. overnight. After washing the wells with PBS-T, HRP-labeled anti-mouse IgG antibody (GE Healthcare) diluted with 5% skim milk/PBS was added and the mixture was shaken at room temperature for 3 hr. After washing the wells with PBS-T, TMB solution (SIGMA) was added, the wells were allowed to stand for 30 min in the dark, the reaction was stopped by adding 0.5M H2SO4, and the absorbance at 450 nm was measured using a plate reader. The serum dilution rate that gave 1/2 (OD=1.75) of the maximum absorbance was defined as the antibody titer, and the geometric mean titer: GMT was calculated from the individual values. Binding to IL-23 protein was measured by the ELISA method in the same manner as the antibody titer, using rmIL-23 (Antibodies-online GmbH) as the solid-phased antigen and goat serum for blocking.
AJP001 conjugated peptide (SEQ ID NO: 2) was dissolved in physiological saline and intradermally administered to BALB/c mice (female, 6-week-old, N=6) at 1 mg/body 3 times at two-week intervals, and blood was collected every 2 weeks until 8 weeks. The antibody titer (GMT) of all the collected sera and the binding ability to rmIL-23 of the serum at the time point of 6 weeks were measured by the ELISA method (same method as in Example 1). The antibody titer and the binding of the induced antibody to rmIL-23 at each time point are shown in FIGS. 2 (a) and (b), respectively.
AJP001 conjugated peptide (SEQ ID NOs: 6-37) was dissolved in physiological saline, mixed with an equal amount of 2% Alhydrogel (invivogen), and this was intradermally administered to BALB/c mice (female, 6-week-old, N=5-6) at 0.5 mg/body 3 times at two-week intervals. Blood was collected before administration and at the time point of 6 weeks after initial administration, and the antibody titer (GMT) to each epitope sequence and binding ability to recombinant human IL-23 protein (rhIL-23) (Peprotech) were measured by the ELISA method (same method as in Example 1). The binding to rhIL-23 was evaluated by a binding ratio to normal serum by calculating the ratio of the absorbance of a well added with normal mouse serum to the absorbance of a well added with antiserum derived from a mouse administered with each AJP001 conjugated peptide (SEQ ID NOs: 6-37). In addition, the neutralization activity of mouse antiserum was evaluated using an action on IL-17 production in rhIL-23 stimulated mouse splenocyte as an index. The spleen of normal BALB/c mouse (female, 5-week-old, N=3) was triturated using a syringe barrel and a cell strainer and washed with and suspended in HBSS (−). Erythrocytes were then removed using ACK Buffer (Thermo fisher scientific), and splenocytes were isolated. The splenocytes were prepared to 2.5×10^6 cells/mL with 10% FBS/1% penicillin/streptomycin/4 ng/mL rmIL-2-containing RPMI1640 medium (culture medium), and seeded in a 96 well plate at 100 μl/well. The antiserum (final concentration 15-fold) of the mice administered with each AJP001 conjugated peptide and rhIL-23 (final concentration 10 ng/ml) were added to the culture medium, reacted at 37° C. for 2 hr, added at 100 μL/well to a 96-well plate seeded with splenocytes, and cultured for 3 days in a 37° C./5% CO2 incubator. […]

[1] = system: recombinant human IL-23 protein (rhIL-23); assay: Binding of mouse antiserum to rhIL-23, ELISA; details: rhIL-23 ELISA; antiserum of BALB/c mice 6 weeks after initial administration, 0.5 mg/body with Alhydrogel
Description: (§1) AJP001 conjugated peptide (SEQ ID NOs: 6-37) was dissolved in physiological saline, mixed with an equal amount of 2% Alhydrogel (invivogen), and this was intradermally administered to BALB/c mice (female, 6-week-old, N=5-6) at 0.5 mg/body 3 times at two-week intervals. Blood was collected before administration and at the time point of 6 weeks after initial administration, and the antibody titer (GMT) to each epitope sequence and binding ability to recombinant human IL-23 protein (rhIL-23) (Peprotech) were measured by the ELISA method (same method as in Example 1). The binding to rhIL-23 was evaluated by a binding ratio to normal serum by calculating the ratio of the absorbance of a well added with normal mouse serum to the absorbance of a well added with antiserum derived from a mouse administered with each AJP001 conjugated peptide (SEQ ID NOs: 6-37). In addition, the neutralization activity of mouse antiserum was evaluated using an action on IL-17 production in rhIL-23 stimulated mouse splenocyte as an index. The spleen of normal BALB/c mouse (female, 5-week-old, N=3) was triturated using a syringe barrel and a cell strainer and washed with and suspended in HBSS (−). Erythrocytes were then removed using ACK Buffer (Thermo fisher scientific), and splenocytes were isolated. The splenocytes were prepared to 2.5×10^6 cells/mL with 10% FBS/1% penicillin/streptomycin/4 ng/mL rmIL-2-containing RPMI1640 medium (culture medium), and seeded in a 96 well plate at 100 μl/well. The antiserum (final concentration 15-fold) of the mice administered with each AJP001 conjugated peptide and rhIL-23 (final concentration 10 ng/ml) were added to the culture medium, reacted at 37° C. for 2 hr, added at 100 μL/well to a 96-well plate seeded with splenocytes, and cultured for 3 days in a 37° C./5% CO2 incubator. An untreated well and a control well to which normal mouse serum and rhIL-23 were added were provided. IL-17A/F in the culture supernatant was measured using Mouse IL-17A/F ELISA kit (R&D systems), the proportion (%) of IL-17 to normal serum was calculated from the IL-17 concentrations of untreated well (A), control well (B), and well (C) to which antiserum of the mice administered with each AJP001 conjugated peptide was added and according to the following formula, and the neutralization activity was evaluated.
AJP001 conjugated peptide (SEQ ID NO: 6) was dissolved in physiological saline and intradermally administered to BALB/c mice (female, 6-week-old, N=6) at 1 mg/body 3 times at two-week intervals, and blood was collected every 2 weeks until 8 weeks. The antibody titer (GMT) of all the collected sera and the binding ability to rhIL-23 of the serum at 6 weeks were measured by the ELISA method. In FIG. 5, “*” means P<0.05.

[2] = system: IL-17 production in rhIL-23 stimulated mouse splenocyte; assay: Neutralization activity of mouse antiserum: IL-17 production in rhIL-23 stimulated mouse splenocyte; type: cell-based; details: antiserum final 15-fold, rhIL-23 10 ng/ml, 3 days culture; IL-17A/F ELISA
Description: as §1
Percentage of IL-17 to normal serum (%)=100×(C−A/B−A)

Row | binding to IL-23 (binding ratio to normal serum) [1] | Substance | PASI90 (almost complete disappearance of psoriasis lesion) rate (p19 subunit) | antibody titer (GMT) (epitope peptide) | neutralization activity (percentage of IL-17 to normal serum (%)) [2]
1 |  | Risankizumab | about twice as high as that of Ustekinumab |  | 
2 | 1.37 | 8 (SASQPWQR; not fully specified (N-terminus)) [compound 8] |  | 3485 | 1.4%
3 | 1.01 | 9 (SPAQPWQR; not fully specified (N-terminus)) [compound 9] |  | 4683 | 4.0%
4 | 1.16 | 15 (PWQRPWQR; not fully specified (N-terminus)) [compound 15] |  | 458 | 10%
5 | 4.40 | 6 (SPSQPWQR; not fully specified (N-terminus); listed as Homo sapiens) [compound 6] |  | 12563 | 15.8%
6 | 0.97 | 34 (PSQPWQRK; not fully specified (N-terminus); listed as Homo sapiens) [compound 34] |  | 362 | 32.5%
7 | 1.30 | 35 (SQPWQRK; not fully specified (N-terminus); listed as Homo sapiens) [compound 35] |  | 92 | 32.5%
8 | 1.2 | 30 (KKSQPWQR; not fully specified (N-terminus)) [compound 30] |  | 6917 | 68.9%
9 | 1.33 | 23 (STSQSWQR; not fully specified (N-terminus)) [compound 23] |  | 31720 | 9.4%
10 | 1.00 | 33 (QPWQR; not fully specified (N-terminus); listed as Homo sapiens) [compound 33] |  | 16458 | 72.6%
